# Laboratory results reported in patent US9738634B2, “Heterocyclic amide compound and herbicide” (SYNGENTA PARTICIPATIONS AG, priority 2013, dated 2017).
# Key:
# Format in all cases: in vivo
# barnyard grass [1] = experiment: Test Example 1: weedkilling efficacy, preemergent weed treatment in the submerged state; A: barnyard grass; settings: treatment dosage 252 g/ha
# Outline: (§1)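 Visual scores against set criteria were taken 3 weeks after treatment. Compounds, as diluted emulsions at specified g/ha, went onto the water surface of 4 cm-flooded alluvial soil pots on the day weeds were sown and 2.5-leaf rice was transplanted; greenhouse held 25–30 °C.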
# bulrush [2] = experiment: Test Example 1: weedkilling efficacy, preemergent weed treatment in the submerged state; B: bulrush; settings: treatment dosage 252 g/ha
# Outline: as §1
# oval-leafed pondweed [3] = experiment: Test Example 1: weedkilling efficacy, preemergent weed treatment in the submerged state; C: oval-leafed pondweed; settings: treatment dosage 252 g/ha
# Outline: as §1
# transplanted rice = experiment: Test Example 1: preemergent weed treatment in the submerged state, effect on crop; a: transplanted rice; settings: treatment dosage 252 g/ha
# Outline: as §1
# barnyard grass [4] = experiment: Test Example 2: weedkilling efficacy, growth period weed treatment in the submerged state; A: barnyard grass; settings: treatment dosage 252 g/ha
# Outline: (§2)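 Barnyard grass, bulrush and oval-leafed pondweed sown in alluvial soil under 4 cm flooding, greenhouse 25 to 30° C. At 1-2 leaf stage, water-diluted emulsion applied to the water surface at stated g/ha dosages; effects scored 3 weeks later.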
# bulrush [5] = experiment: Test Example 2: weedkilling efficacy, growth period weed treatment in the submerged state; B: bulrush; settings: treatment dosage 252 g/ha
# Outline: as §2
# oval-leafed pondweed [6] = experiment: Test Example 2: weedkilling efficacy, growth period weed treatment in the submerged state; C: oval-leafed pondweed; settings: treatment dosage 252 g/ha
# Outline: as §2
# crabgrass [7] = experiment: Test Example 3: weedkilling efficacy through soil treatment; D: crabgrass; settings: treatment dosage 315 g/ha
# Outline: (§3)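 Crop and weed responses were judged three weeks after a uniform surface spray of the water-diluted emulsion at the given g/ha rate. Seeds sat beneath about 1.5 cm of sterilized diluvial soil, and boxes stood in a greenhouse at 25 to 30° C.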
# green foxtail [8] = experiment: Test Example 3: weedkilling efficacy through soil treatment; E: green foxtail; settings: treatment dosage 315 g/ha
# Outline: as §3
# black-grass [9] = experiment: Test Example 3: weedkilling efficacy through soil treatment; H: black-grass; settings: treatment dosage 315 g/ha
# Outline: as §3
# Italian ryegrass [10] = experiment: Test Example 3: weedkilling efficacy through soil treatment; I: Italian ryegrass; settings: treatment dosage 315 g/ha
# Outline: as §3
# Indian mallow [11] = experiment: Test Example 3: weedkilling efficacy through soil treatment; K: Indian mallow; settings: treatment dosage 315 g/ha
# Outline: as §3
# redroot pigweed [12] = experiment: Test Example 3: weedkilling efficacy through soil treatment; L: redroot pigweed; settings: treatment dosage 315 g/ha
# Outline: as §3
# fig-leafed goosefoot [13] = experiment: Test Example 3: weedkilling efficacy through soil treatment; M: fig-leafed goosefoot; settings: treatment dosage 315 g/ha
# Outline: as §3
# chickweed [14] = experiment: Test Example 3: weedkilling efficacy through soil treatment; N: chickweed; settings: treatment dosage 315 g/ha
# Outline: as §3
# birds-eye speedwell [15] = experiment: Test Example 3: weedkilling efficacy through soil treatment; p: birds-eye speedwell; settings: treatment dosage 315 g/ha
# Outline: as §3
# directly sown rice [16] = experiment: Test Example 3: soil treatment, effect on crop; b: directly sown rice; settings: treatment dosage 315 g/ha
# Outline: as §3
# corn [17] = experiment: Test Example 3: soil treatment, effect on crop; c: corn; settings: treatment dosage 315 g/ha
# Outline: as §3
# soybean [18] = experiment: Test Example 3: soil treatment, effect on crop; d: soybean; settings: treatment dosage 315 g/ha
# Outline: as §3
# wheat [19] = experiment: Test Example 3: soil treatment, effect on crop; e: wheat; settings: treatment dosage 315 g/ha
# Outline: as §3
# beet [20] = experiment: Test Example 3: soil treatment, effect on crop; f: beet; settings: treatment dosage 315 g/ha
# Outline: as §3
# crabgrass [21] = experiment: Test Example 4: weedkilling efficacy by foliar treatment; D: crabgrass; settings: treatment dosage 315 g/ha
# Protocol: (§4) Testing of Weedkilling Efficacy by Foliar Treatment
# (§5) Sterilized diluvial soil was introduced into 21 cm long, 13 cm wide, 7 cm deep plastic boxes, and seeds of crabgrass, green foxtail, barnyard grass, wild oat, black-grass, Italian ryegrass, common wind-grass, Indian mallow, redroot pigweed, fig-leafed goosefoot, chickweed, catchweed, birds-eye speedwell, corn, soybean, rice, wheat, beet and rapeseed were each spot-sown, and covered with about 1.5 cm of soil, then the plants were grown in a greenhouse at 25 to 30° C.
# (§6) After they had grown for 14 days, emulsions of compounds of the present invention prepared according to compounding example 2 were diluted with water to give the specified dosages, and applied uniformly onto the stem and leaf parts with a small sprayer. 3 weeks after the pesticide treatment the effect on each type of plant was investigated on the basis of the assessment criteria of test example 1.
# (§7) A: barnyard grass, B: bulrush, C: oval-leafed pondweed, D: crabgrass, E: green foxtail, F: barnyard grass, G: wild oat, H: black-grass, I: Italian ryegrass, J: common wind-grass, K: Indian mallow, L: redroot pigweed, M: fig-leafed goosefoot, N: chickweed, O: catchweed, p: birds-eye speedwell, a: transplanted rice, b: directly sown rice, c: corn, d: soybean, e: wheat, f: beet, g: rapeseed
# (§8) Further, pesticide dosage (g/ha) indicates the concentration regulated such that treatment was with only the stated number of grams (g), when calculated per hectare (ha).
# green foxtail [22] = experiment: Test Example 4: weedkilling efficacy by foliar treatment; E: green foxtail; settings: treatment dosage 315 g/ha
# Protocol: as §4, §5, §6, §7, §8
# black-grass [23] = experiment: Test Example 4: weedkilling efficacy by foliar treatment; H: black-grass; settings: treatment dosage 315 g/ha
# Protocol: as §4, §5, §6, §7, §8
# Italian ryegrass [24] = experiment: Test Example 4: weedkilling efficacy by foliar treatment; I: Italian ryegrass; settings: treatment dosage 315 g/ha
# Protocol: as §4, §5, §6, §7, §8
# Indian mallow [25] = experiment: Test Example 4: weedkilling efficacy by foliar treatment; K: Indian mallow; settings: treatment dosage 315 g/ha
# Protocol: as §4, §5, §6, §7, §8
# redroot pigweed [26] = experiment: Test Example 4: weedkilling efficacy by foliar treatment; L: redroot pigweed; settings: treatment dosage 315 g/ha
# Protocol: as §4, §5, §6, §7, §8
# fig-leafed goosefoot [27] = experiment: Test Example 4: weedkilling efficacy by foliar treatment; M: fig-leafed goosefoot; settings: treatment dosage 315 g/ha
# Protocol: as §4, §5, §6, §7, §8
# chickweed [28] = experiment: Test Example 4: weedkilling efficacy by foliar treatment; N: chickweed; settings: treatment dosage 315 g/ha
# Protocol: as §4, §5, §6, §7, §8
# catchweed = experiment: Test Example 4: weedkilling efficacy by foliar treatment; O: catchweed; settings: treatment dosage 315 g/ha
# Protocol: as §4, §5, §6, §7, §8
# birds-eye speedwell [29] = experiment: Test Example 4: weedkilling efficacy by foliar treatment; p: birds-eye speedwell; settings: treatment dosage 315 g/ha
# Protocol: as §4, §5, §6, §7, §8
# directly sown rice [30] = experiment: Test Example 4: foliar treatment, effect on crop; b: directly sown rice; settings: treatment dosage 315 g/ha
# Protocol: as §4, §5, §6, §7, §8
# corn [31] = experiment: Test Example 4: foliar treatment, effect on crop; c: corn; settings: treatment dosage 315 g/ha
# Protocol: as §4, §5, §6, §7, §8
# soybean [32] = experiment: Test Example 4: foliar treatment, effect on crop; d: soybean; settings: treatment dosage 315 g/ha
# Protocol: as §4, §5, §6, §7, §8
# wheat [33] = experiment: Test Example 4: foliar treatment, effect on crop; e: wheat; settings: treatment dosage 315 g/ha
# Protocol: as §4, §5, §6, §7, §8
# beet [34] = experiment: Test Example 4: foliar treatment, effect on crop; f: beet; settings: treatment dosage 315 g/ha
# Protocol: as §4, §5, §6, §7, §8
SMILES,A (barnyard grass) weedkilling efficacy grade (barnyard grass [1]),B (bulrush) weedkilling efficacy grade (bulrush [2]),C (oval-leafed pondweed) weedkilling efficacy grade (oval-leafed pondweed [3]),a (transplanted rice) effect on crop grade (transplanted rice),A (barnyard grass) weedkilling efficacy grade (barnyard grass [4]),B (bulrush) weedkilling efficacy grade (bulrush [5]),C (oval-leafed pondweed) weedkilling efficacy grade (oval-leafed pondweed [6]),D (crabgrass) weedkilling efficacy grade (crabgrass [7]),E (green foxtail) weedkilling efficacy grade (green foxtail [8]),H (black-grass) weedkilling efficacy grade (black-grass [9]),I (Italian ryegrass) weedkilling efficacy grade (Italian ryegrass [10]),K (Indian mallow) weedkilling efficacy grade (Indian mallow [11]),L (redroot pigweed) weedkilling efficacy grade (redroot pigweed [12]),M (fig-leafed goosefoot) weedkilling efficacy grade (fig-leafed goosefoot [13]),N (chickweed) weedkilling efficacy grade (chickweed [14]),P (birds-eye speedwell) weedkilling efficacy grade (birds-eye speedwell [15]),b (directly sown rice) effect on crop grade (directly sown rice [16]),c (corn) effect on crop grade (corn [17]),d (soybean) effect on crop grade (soybean [18]),e (wheat) effect on crop grade (wheat [19]),further results
CC1=C(c2ccccc2)C(=O)N(C(C)(C)C(=O)Nc2cccc(Cl)n2)CO1 [B-2-29],"5 (weed kill ratio 90% or more, (practically complete withering))","5 (weed kill ratio 90% or more, (practically complete withering))","5 (weed kill ratio 90% or more, (practically complete withering))",0 (weed kill ratio 5% or less (practically no effect)),"5 (weed kill ratio 90% or more, (practically complete withering))","5 (weed kill ratio 90% or more, (practically complete withering))","5 (weed kill ratio 90% or more, (practically complete withering))","5 (weed kill ratio 90% or more, (practically complete withering))","5 (weed kill ratio 90% or more, (practically complete withering))","5 (weed kill ratio 90% or more, (practically complete withering))","5 (weed kill ratio 90% or more, (practically complete withering))","4 (weed kill ratio 70% or more, less than 90%)","4 (weed kill ratio 70% or more, less than 90%)","5 (weed kill ratio 90% or more, (practically complete withering))","5 (weed kill ratio 90% or more, (practically complete withering))","5 (weed kill ratio 90% or more, (practically complete withering))","5 (weed kill ratio 90% or more, (practically complete withering))",0 (weed kill ratio 5% or less (practically no effect)),"3 (weed kill ratio 40% or more, less than 70%)","5 (weed kill ratio 90% or more, (practically complete withering))","f (beet) effect on crop grade (beet [20]): 5 (weed kill ratio 90% or more, (practically complete withering)); D (crabgrass) weedkilling efficacy grade (crabgrass [21]): 5 (weed kill ratio 90% or more, (practically complete withering)); E (green foxtail) weedkilling efficacy grade (green foxtail [22]): 5 (weed kill ratio 90% or more, (practically complete withering)); H (black-grass) weedkilling efficacy grade (black-grass [23]): 5 (weed kill ratio 90% or more, (practically complete withering)); I (Italian ryegrass) weedkilling efficacy grade (Italian ryegrass [24]): 5 (weed kill ratio 90% or more, (practically complete withering)); K (Indian mallow) weedkilling efficacy grade (Indian mallow [25]): 5 (weed kill ratio 90% or more, (practically complete withering)); L (redroot pigweed) weedkilling efficacy grade (redroot pigweed [26]): 5 (weed kill ratio 90% or more, (practically complete withering)); M (fig-leafed goosefoot) weedkilling efficacy grade (fig-leafed goosefoot [27]): 4 (weed kill ratio 70% or more, less than 90%); N (chickweed) weedkilling efficacy grade (chickweed [28]): 5 (weed kill ratio 90% or more, (practically complete withering)); O (catchweed) weedkilling efficacy grade (catchweed): 4 (weed kill ratio 70% or more, less than 90%); P (birds-eye speedwell) weedkilling efficacy grade (birds-eye speedwell [29]): 4 (weed kill ratio 70% or more, less than 90%); b (directly sown rice) effect on crop grade (directly sown rice [30]): 5 (weed kill ratio 90% or more, (practically complete withering)); c (corn) effect on crop grade (corn [31]): 4 (weed kill ratio 70% or more, less than 90%); d (soybean) effect on crop grade (soybean [32]): 5 (weed kill ratio 90% or more, (practically complete withering)); e (wheat) effect on crop grade (wheat [33]): 5 (weed kill ratio 90% or more, (practically complete withering)); f (beet) effect on crop grade (beet [34]): 4 (weed kill ratio 70% or more, less than 90%)"
CC1=C(c2ccsc2)C(=O)N(C(C)(C)C(=O)Nc2cccc(Cl)n2)CO1 [B-2-05],"5 (weed kill ratio 90% or more, (practically complete withering))","5 (weed kill ratio 90% or more, (practically complete withering))","5 (weed kill ratio 90% or more, (practically complete withering))",0 (weed kill ratio 5% or less (practically no effect)),"5 (weed kill ratio 90% or more, (practically complete withering))","5 (weed kill ratio 90% or more, (practically complete withering))","5 (weed kill ratio 90% or more, (practically complete withering))","5 (weed kill ratio 90% or more, (practically complete withering))","5 (weed kill ratio 90% or more, (practically complete withering))","5 (weed kill ratio 90% or more, (practically complete withering))","5 (weed kill ratio 90% or more, (practically complete withering))","1 (weed kill ratio 5% or more, less than 20%)","4 (weed kill ratio 70% or more, less than 90%)","5 (weed kill ratio 90% or more, (practically complete withering))","5 (weed kill ratio 90% or more, (practically complete withering))","5 (weed kill ratio 90% or more, (practically complete withering))","3 (weed kill ratio 40% or more, less than 70%)",0 (weed kill ratio 5% or less (practically no effect)),0 (weed kill ratio 5% or less (practically no effect)),0 (weed kill ratio 5% or less (practically no effect)),"f (beet) effect on crop grade (beet [20]): 5 (weed kill ratio 90% or more, (practically complete withering)); D (crabgrass) weedkilling efficacy grade (crabgrass [21]): 5 (weed kill ratio 90% or more, (practically complete withering)); E (green foxtail) weedkilling efficacy grade (green foxtail [22]): 5 (weed kill ratio 90% or more, (practically complete withering)); H (black-grass) weedkilling efficacy grade (black-grass [23]): 5 (weed kill ratio 90% or more, (practically complete withering)); I (Italian ryegrass) weedkilling efficacy grade (Italian ryegrass [24]): 5 (weed kill ratio 90% or more, (practically complete withering)); K (Indian mallow) weedkilling efficacy grade (Indian mallow [25]): 3 (weed kill ratio 40% or more, less than 70%); L (redroot pigweed) weedkilling efficacy grade (redroot pigweed [26]): 3 (weed kill ratio 40% or more, less than 70%); M (fig-leafed goosefoot) weedkilling efficacy grade (fig-leafed goosefoot [27]): 4 (weed kill ratio 70% or more, less than 90%); N (chickweed) weedkilling efficacy grade (chickweed [28]): 4 (weed kill ratio 70% or more, less than 90%); O (catchweed) weedkilling efficacy grade (catchweed): 4 (weed kill ratio 70% or more, less than 90%); P (birds-eye speedwell) weedkilling efficacy grade (birds-eye speedwell [29]): 5 (weed kill ratio 90% or more, (practically complete withering)); b (directly sown rice) effect on crop grade (directly sown rice [30]): 4 (weed kill ratio 70% or more, less than 90%); c (corn) effect on crop grade (corn [31]): 4 (weed kill ratio 70% or more, less than 90%); d (soybean) effect on crop grade (soybean [32]): 3 (weed kill ratio 40% or more, less than 70%); e (wheat) effect on crop grade (wheat [33]): 3 (weed kill ratio 40% or more, less than 70%); f (beet) effect on crop grade (beet [34]): 4 (weed kill ratio 70% or more, less than 90%)"
